In patent US11767310B2, “Nicotinamide RIPK1 inhibitors” (AbbVie Inc., priority 2021, dated 2023):
pIC50: −log10 of the molar value.

Key:
U937 cells = assay: U937 TNF/zVAD Cytotoxicity Cell Assay; format: cell-based; settings: Homo sapiens, U-937; TNFα 10 ng/mL + Z-VAD FMK 20 μM, 16-20 hours; read-out: U937 TNF/zVAD Induced Cytotoxicity IC50
Experimental: Compounds were tested for their ability to prevent TNF induced necroptosis in U937 cells. Treatment with TNF and the caspase inhibitor zVAD-FMK results in the activation and phosphorylation of RIPK1 and subsequent phosphorylation of RIPK3 and MLKL (Mixed Lineage Kinase Domain Like Pseudokinase), leading to induction of necroptotic cell death that is measured as a reduction in cell viability. Similar U937 assay protocols have been previously described; see, e.g., Harris et al., ACS Med. Chem. Letters (2013) 4:1238-1243 and Supplementary Information.
Test compounds were solvated in dimethyl sulfoxide (DMSO) and 3-fold serially diluted from 10 uM to 0.0005 uM with technical duplicates into an empty 384 well plate. U937 cells were resuspended at a concentration of 500,000 cells/mL in fresh RPMI (Roswell Park Memorial Institute) 1640 growth medium containing 10% heat inactivated fetal bovine serum (FB1S) and seeded into a 384 well plate containing compounds and incubated for 1 hour at 37° C. Following incubation, the cells were challenged with TNFα (final concentration of 10 ng/mL) and Z-VAD FMK (N-Benzyloxycarbonyl-Val-Ala-Asp(O-Me) fluoromethyl ketone; final concentration of 20 μM) for 16-20 hours at 37° C. Following the incubation with TNFα/Z-VAD, cells were lysed with Cell Titer-Glo and incubated for 5-10 minutes. The plate was then read on an Envision plate reader. Data was normalized and analyzed with Studies from Dotmatics.

RIPK1 = RIPK1 (Homo sapiens (Human), UniProt Q13546); assay: RIPK1 Binding Assay; settings: displacement of fluorescent probe, TR-FRET
Experimental: Compounds were tested for their ability to displace a fluorescent probe from recombinant human RIPK1.
Recombinant human RIPK1 (1-375) was prepared as described in Harris et al., ACS Med. Chem. Letters (2013) 4:1238-1243 (Supplementary Information), with the following exceptions: (i) instead of using the gene sequence from NM_003804.3, the gene was synthesized with codon optimization for BEV expression system, and (ii) the gene was cloned into the vector pFastBac1, not pDEST8.
A fluorescent probe containing an Oregon green fluorophore was synthesized from a compound known to bind to RIPK1.
The assay was performed in a buffer containing 50 mM N-2-Hydroxyethylpiperazine-N′-2-ethanesulfonic acid (HEPES) (pH 7.5), 10 mM MgCl2, 1 mM ethylene diamine tetraacetic acid (EDTA), and 0.01% BRIJ-35 (Polyoxyethylene (23) lauryl ether). Test compounds were solvated in dimethyl sulfoxide (DMSO) at final concentrations 4-fold serially diluted from 100 to 0.000095 uM in technical duplicates into an empty 384 well plate. Recombinant RIPK1 (final concentration of 2.5 nM) was added to the wells and incubated with test compound for 1 hour at room temperature. A solution containing the fluorescent probe (final concentration 5 nM) and an LanthaScreen Tb-anti-GST antibody (Thermofisher Scientific; final concentration of 5 nM) was then added to each well, with the Tb-anti-GST antibody binding to the GST portion of the recombinant RIPK1 and providing the corresponding FRET pair to the fluorescent probe. The plate was incubated for 1 hour at room temperature and read on an Envision plate reader using a time resolved FRET protocol. Data was normalized and analyzed using Studies from Dotmatics.

RIPK1, sequence (Q13546 1-375): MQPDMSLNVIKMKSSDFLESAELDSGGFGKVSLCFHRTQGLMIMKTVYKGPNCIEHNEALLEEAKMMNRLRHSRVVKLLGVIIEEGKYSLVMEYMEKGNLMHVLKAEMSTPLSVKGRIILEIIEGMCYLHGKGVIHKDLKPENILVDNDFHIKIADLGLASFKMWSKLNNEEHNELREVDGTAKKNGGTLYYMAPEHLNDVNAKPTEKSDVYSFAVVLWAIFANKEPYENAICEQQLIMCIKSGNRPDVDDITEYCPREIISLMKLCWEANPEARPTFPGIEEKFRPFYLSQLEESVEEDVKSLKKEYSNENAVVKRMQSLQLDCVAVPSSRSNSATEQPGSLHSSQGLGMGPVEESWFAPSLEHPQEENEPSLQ

Row | SMILES | pIC50 (U937 cells) | pIC50 (RIPK1)
1 | CN(C[C@@H](O)Cc1ccccc1)C(=O)c1cncc(C#Cc2cnn(C3COC3)n2)c1 [Example 10, (S)-N-(2-hydroxy-3-phenylpropyl)-N-methyl-5-((2-(oxetan-3-yl)-2H-1,2,3-triazol-4-yl)ethynyl)nicotinamide] | 6.42 | 7.37
2 | Cc1ncc(C#Cc2cncc(C(=O)N(C)C[C@@H](O)Cc3ccccc3)c2)o1 [Example 17, (S)-N-(2-hydroxy-3-phenylpropyl)-N-methyl-5-((2-methyloxazol-5-yl)ethynyl)nicotinamide] | 6.84 | 7.49
3 | CN(C[C@@H](O)Cc1ccccc1)C(=O)c1cncc(C#Cc2cnn(C(F)(F)F)c2)c1 [Example 4, (S)-N-(2-hydroxy-3-phenylpropyl)-N-methyl-5-((1-(trifluoromethyl)-1H-pyrazol-4-yl)ethynyl)nicotinamide] | 6.70 | 7.52
4 | CN(C[C@@H](O)Cc1ccccc1)C(=O)c1cncc(C#Cc2cnn(C3CC3)c2)c1 [Example 5, (S)-5-((1-cyclopropyl-1H-pyrazol-4-yl)ethynyl)-N-(2-hydroxy-3-phenylpropyl)-N-methylnicotinamide] | 7.31 | 7.85
5 | CN(C[C@@H](O)Cc1ccccc1)C(=O)c1cncc(C#Cc2cnn3c2COCC3)c1 [Example 8, (S)-5-((6,7-Dihydro-4H-pyrazolo[5,1-c][1,4]oxazin-3-yl)ethynyl)-N-(2-hydroxy-3-phenylpropyl)-N-methylnicotinamide] | 7.89 | 8.22
6 | CN(C[C@@H](O)Cc1cccc(F)c1)C(=O)c1cncc(C#Cc2cnn(C)c2)c1 [Example 12, (S)-N-(3-(3-fluorophenyl)-2-hydroxypropyl)-N-methyl-5-((1-methyl-1H-pyrazol-4-yl)ethynyl)nicotinamide] | 7.70 | 7.89
7 | CN(C[C@@H](O)Cc1ccccc1)C(=O)c1cncc(C#Cc2cnn(C)n2)c1 [Example 3, (S)-N-(2-hydroxy-3-phenylpropyl)-N-methyl-5-((2-methyl-2H-1,2,3-triazol-4-yl)ethynyl)nicotinamide] | 6.71 | 7.44
8 | COc1ncc(C(=O)N(C)C[C@@H](O)Cc2ccccc2)cc1C#Cc1cnn(C)c1 [Example 13, (S)-N-(2-hydroxy-3-phenylpropyl)-6-methoxy-N-methyl-5-((1-methyl-1H-pyrazol-4-yl)ethynyl)nicotinamide] | 6.42 | 7.02
9 | CN(C[C@@H](O)[C@@H](F)c1ccccc1)C(=O)c1cncc(C#Cc2cnn(C)c2)c1 [Example 7, N-((2R,3S)-3-fluoro-2-hydroxy-3-phenylpropyl)-N-methyl-5-((1-methyl-1H-pyrazol-4-yl)ethynyl)nicotinamide] | 8.05 | 8.15
10 | Cc1c(C#Cc2cncc(C(=O)N(C)C[C@@H](O)Cc3ccccc3)c2)cnn1C(F)F [Example 26, (S)-5-((1-(difluoromethyl)-5-methyl-1H-pyrazol-4-yl)ethynyl)-N-(2-hydroxy-3-phenylpropyl)-N-methylnicotinamide] | 8.52 | 8.74
11 | CN(C[C@@H](O)Cc1ccccc1)C(=O)c1cncc(C#Cc2cnn(C)c2C2CC2)c1 [Example 11, (S)-5-((5-cyclopropyl-1-methyl-1H-pyrazol-4-yl)ethynyl)-N-(2-hydroxy-3-phenylpropyl)-N-methylnicotinamide] | 8.30 | 8.70
12 | CN(CC(O)Cc1ccccc1)C(=O)c1cnc(C(F)F)c(C#Cc2cnn(C)c2)c1 (stereo in doubt) [Example 9, (S)-6-(difluoromethyl)-N-(2-hydroxy-3-phenylpropyl)-N-methyl-5-((1-methyl-1H-pyrazol-4-yl)ethynyl)nicotinamide] | 7.54 | 7.74
13 | CN(C[C@@H](O)Cc1ccccc1)C(=O)c1cncc(C#Cc2cnn(C3CCC3)c2)c1 [Example 6, (S)-5-((1-cyclobutyl-1H-pyrazol-4-yl)ethynyl)-N-(2-hydroxy-3-phenylpropyl)-N-methylnicotinamide] | 8.22 | 8.52
14 | Cc1ncc(C#Cc2cncc(C(=O)N(C)C[C@@H](O)Cc3ccccc3)c2)s1 [Example 15, (S)-N-(2-hydroxy-3-phenylpropyl)-N-methyl-5-((2-methylthiazol-5-yl)ethynyl) nicotinamide] | – | 4.60
